Reference: US6143749A, “Heterocyclic substituted cyclopentane compounds” (Abbott Laboratories, priority 1996, dated 2000)

What was measured:
[1] = biological target: adenosine kinase (Homo sapiens, UniProt P55263); assay: inhibition of adenosine kinase activity in vitro; format: biochemical
Source text: The adenosine kinase to be inhibited can be located in vitro, in situ or in vivo. Where the adenosine kinase is located in vitro, adenosine kinase is contacted with the inhibitor compound, typically by adding the compound to an aqueous solution containing the enzyme, radiolabeled substrate adenosine, magnesium chloride and ATP. The enzyme can exist in intact cells or in isolated subcellular fractions containing the enzyme. The enzyme is then maintained in the presence of the inhibitor for a period of time and under suitable physiological conditions. Means for determining maintainence times are well known in the art and depend inter alia on the concentrations of enzyme and the physiological conditions. Suitable physiological conditions are those necessary to maintain adenosine kinase viability and include temperature, acidity, tonicity and the like. Inhibition of adenosine kinase can be performed, by example, according to standard procedures well known in the art (Yamada, et al, Comp. Biochem. Physiol. 1982, 71B: 367-372).
In vitro adenosine kinase activity can be measured using any of the standard procedures well known in the art. By way of example, cells containing adenosine kinase, such as IMR-32 human -neuroblastoma cells, are cultured in the presence and absence of an inhibitor. Inhibition is measured as the ability to inhibit phosphorylation of endogenous or externally applied ^14 C-adenosine by these cells. The cells can be intact or broken. The specificity of adenosine kinase inhibitory activity is determined by studying the effects of inhibitors on adenosine A1 and A2a receptor binding, adenosine deaminase activity and adenosine transport.
Numerous inhibitor compounds of the present invention were tested in vitro and found to inhibit adenosine kinase activity. The results of some representative studies are shown below in Tables 1 and 2.

[2] = system: adenosine kinase; conditions: literature, in words; cited from earlier work

adenosine kinase (Homo sapiens, UniProt P55263), sequence (P55263 whole entry, species assumed): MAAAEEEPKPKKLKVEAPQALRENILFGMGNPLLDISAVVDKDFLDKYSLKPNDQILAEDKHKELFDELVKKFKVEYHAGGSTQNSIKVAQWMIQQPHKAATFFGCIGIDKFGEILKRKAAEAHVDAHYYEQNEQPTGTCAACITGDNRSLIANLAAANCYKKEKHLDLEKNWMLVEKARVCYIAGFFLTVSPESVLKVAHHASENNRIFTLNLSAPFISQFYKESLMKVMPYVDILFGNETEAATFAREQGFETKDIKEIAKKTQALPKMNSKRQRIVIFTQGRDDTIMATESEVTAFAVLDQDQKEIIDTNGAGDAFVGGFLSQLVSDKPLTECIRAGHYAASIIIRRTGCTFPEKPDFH

Row | IC50 ([1]; Table 1, adenosine kinase) [nM] | IC50 ([1]; Table 2, adenosine kinase) [nM] | Compound | further results
1 | 48 | – | NC(=O)C[C@H](N[C@H]1C[C@@H](n2cc(I)c3c(Cl)ncnc32)[C@H](O)[C@@H]1O)C(=O)O | –
2 | 3000 | – | N[C@@H]1C=C[C@H](n2cc(I)c3c(Cl)ncnc32)C1 | –
3 | 330 | – | N[C@@H]1CC[C@H](n2cc(I)c3c(Cl)ncnc32)C1 | –
4 | 150 | – | O=C(O)CN[C@H]1C[C@@H](n2cc(I)c3c(Cl)ncnc32)[C@H](O)[C@@H]1O [drawing 14: R4=HO2 CCH2 NH; R5=Cl; R6=I, N7-((1'R,2'S,3'R,4'S)-2',3'-dihydroxy-4'-(carboxymethylene)amino-cyclopentyl)-4-chloro-5-iodo-pyrrolopyrimidine] | –
5 | – | 480 | CN(C)CC(=O)N[C@H]1C[C@@H](n2cc(I)c3c(Cl)ncnc32)[C@H](O)[C@@H]1O [drawing 27: R=(CH3)2 NCH2 CO, N7-((1'R,2'S,3'R,4'S)-2',3'-dihydroxy-4'-(dimethylaminoacetyl)amino-cyclopentyl)-4-chloro-5-iodo-pyrrolopyrimidine] | –
6 | – | 300 | COC(=O)N[C@H]1C[C@@H](n2cc(I)c3c(Cl)ncnc32)[C@H](O)[C@@H]1O [drawing 27: R=CH3 OCO, N7-((1'R,2'S,3'R,4'S)-2',3'-dihydroxy-4'-(methoxycarbonyl)amino-cyclopentyl)-4-chloro-5-iodo-pyrrolo-pyrimidine] | –
7 | – | 32 | NCC(=O)N[C@H]1C[C@@H](n2cc(I)c3c(Cl)ncnc32)[C@H](O)[C@@H]1O [drawing 27: R=NH2 CH2 CO, N7-((1'R,2'S,3'R,4'S)-2',3'-dihydroxy-4'-(amino-acetyl)amino-cyclopentyl)-4-chloro-5-iodo-pyrrolopyrimidine] | –

Further lines, the molecule ahead of its results:

Row | Compound | IC50 ([1]; Table 1, adenosine kinase) [nM] | IC50 ([1]; Table 2, adenosine kinase) [nM] | further results
8 | Nc1ncnc2c1c(I)cn2[C@@H]1C[C@H](Nc2ccc(Cl)nn2)[C@@H](O)[C@H]1O | 20 | – | –
9 | Nc1ncnc2c1c(I)cn2[C@@H]1C[C@H](Nc2ncccn2)[C@@H](O)[C@H]1O | 38 | – | –
10 | O[C@@H]1[C@H](O)[C@@H](Nc2ccc(Br)cc2)C[C@H]1n1cc(I)c2c(Cl)ncnc21 | 15 | – | –
11 | CC(C)(C)OC(=O)[C@H](CC(N)=O)N[C@H]1C[C@@H](n2cc(I)c3c(Cl)ncnc32)[C@H](O)[C@@H]1O | 200 | – | –
12 | CC(C)(C)OC(=O)[C@H](CC(N)=O)N([C@H]1C[C@@H](n2cc(I)c3c(Cl)ncnc32)[C@H](O)[C@@H]1O)S(=O)(=O)c1ccc([N+](=O)[O-])cc1[N+](=O)[O-] | 350 | – | –
13 | O=C(Cc1ccccn1)N[C@H]1C[C@@H](n2cc(I)c3c(Cl)ncnc32)[C@H](O)[C@@H]1O | – | 175 | –
14 | O=C(Cc1cccnc1)N[C@H]1C[C@@H](n2cc(I)c3c(Cl)ncnc32)[C@H](O)[C@@H]1O | – | 250 | –
15 | NC[C@H]1O[C@@H](n2cnc3c(N)ncnc32)[C@H](O)[C@@H]1O [5'-amino,5'-deoxyadenosine] | – | – | reported to inhibit adenosine kinase; the most potent [2]: most potent
16 | C[C@H]1O[C@@H](n2cc(I)c3c(N)ncnc32)[C@H](O)[C@@H]1O [5'-deoxy-5-iodotubercidin] | – | – | reported to inhibit adenosine kinase; the most potent [2]: most potent
17 | Nc1ncnc2c1c(I)cn2[C@@H]1O[C@H](CO)[C@@H](O)[C@H]1O [5-iodotubercidin] | – | – | reported to inhibit adenosine kinase; the most potent [2]: most potent
18 | N[C@H]1C[C@@H](n2cc(C#Cc3ccccc3)c3c(C#Cc4ccccc4)ncnc32)[C@H](O)[C@@H]1O [drawing 14: R4=NH2; R5=C≡C--Ph; R6=C≡C--Ph] | 4 | – | –
19 | N[C@H]1C[C@@H](n2cc(-c3ccccc3)c3c(Nc4ccccc4)ncnc32)[C@H](O)[C@@H]1O [drawing 14: R4=NH2; R5=NHPh; R6=Ph] | 35 | – | –
20 | CC(C)(C)OC(=O)CN[C@H]1C[C@@H](n2cc(I)c3c(Cl)ncnc32)[C@H](O)[C@@H]1O [drawing 14: R4=t-buOCOCH2 NH; R5=Cl; R6=I, N7-((1'R,2'S,3'R,4'S)-2',3'-dihydroxy-4'-(t-butoxycarbonyl-methylene)amino-cyclopentyl)-4-chloro-5-iodo-pyrrolopyrimidine] | 28 | – | –
21 | CC(=O)O[C@@H]1[C@H](OC(C)=O)[C@@H](OC(C)=O)C[C@H]1n1cc(Cl)c2c(Cl)ncnc21 [drawing 24: R5=Cl; R6=Cl, N7-((1'R,2'S,3'R,4'S)-2',3',4'-triacetoxycyclopentyl)-4,5-dichloro-pyrrolopyrimidine] | – | > 10000 | –
22 | CC(=O)O[C@@H]1[C@H](OC(C)=O)[C@@H](OC(C)=O)C[C@H]1n1cc(I)c2c(Cl)ncnc21 [drawing 24: R5=Cl; R6=I, N7-((1'R,2'S,3'R,4'S)-2',3',4'-triacetoxycyclopentyl)-4-chloro-5-iodo-pyrrolopyrimidine] | – | > 100000 | –
